What was measured:
Wee-1 kinase = target: T1, Wee-1 kinase (Homo sapiens, UniProt P30291); assay: Inhibitory activity against Wee-1 kinase (Lanthra Screen Wee-1 kinase kit, Tracer 178); format: binding; conditions: Wee-1 kinase 5 nM, Tracer 178 50 nM, 1 h room temperature
T1 construct: purchased Invitrogen
Procedure, shortened: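 LanthaScreen binding format: Wee-1 kinase (5 nM final) with Eu-anti-GST antibody (2 nM final) and kinase Tracer 178 (50 nM final), compounds serially diluted in DMSO. 1 h at room temperature before reading. IC50 relative to DMSO control.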

HT29 cells = assay: Antiproliferative activity against HT29 cells (Cell Titer-Lumi, ATP content); format: cell-based; conditions: Homo sapiens, HT-29, 72 after compound addition, read-out: HT-29 cells Anti-proliferative activity (IC50 for the inhibition against HT-29 cell growth)
Procedure, shortened: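 3000 cells per well, allowed to adhere overnight, then exposed to a gradient dilution of compound for 72 (units as printed). Cellular ATP read by luminescence (Cell Titer-Lumi) as a growth measure; IC50 for growth inhibition calculated.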

T1 sequence (P30291 whole entry): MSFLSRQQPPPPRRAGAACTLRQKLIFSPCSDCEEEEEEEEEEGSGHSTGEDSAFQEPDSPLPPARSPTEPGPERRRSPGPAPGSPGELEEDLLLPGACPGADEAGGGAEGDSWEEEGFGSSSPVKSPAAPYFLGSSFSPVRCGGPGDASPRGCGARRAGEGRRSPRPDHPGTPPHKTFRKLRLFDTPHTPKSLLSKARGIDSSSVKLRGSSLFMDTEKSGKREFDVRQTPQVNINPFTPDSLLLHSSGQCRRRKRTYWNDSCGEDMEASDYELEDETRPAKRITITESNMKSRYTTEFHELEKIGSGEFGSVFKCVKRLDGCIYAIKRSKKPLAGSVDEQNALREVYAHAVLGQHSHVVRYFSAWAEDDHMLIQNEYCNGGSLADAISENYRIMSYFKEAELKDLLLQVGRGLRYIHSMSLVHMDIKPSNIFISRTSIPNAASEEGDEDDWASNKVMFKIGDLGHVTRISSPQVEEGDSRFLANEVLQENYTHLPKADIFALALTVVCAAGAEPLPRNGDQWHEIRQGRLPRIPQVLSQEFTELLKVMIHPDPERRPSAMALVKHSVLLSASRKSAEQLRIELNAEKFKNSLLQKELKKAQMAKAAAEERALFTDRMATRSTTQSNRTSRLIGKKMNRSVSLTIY

`Cc1cc(Nc2ncc3c(=O)n(C(C)C)n(-c4ccc(=O)n(C(C)(C)C)n4)c3n2)ccc1C1CCN(C)CC1` [Compound 290] gave an IC50 (Wee-1 kinase) of at most 30 nM and an IC50 (HT29 cells) of at most 1000 nM.
`CC(C)n1c(=O)c2cnc(Nc3ccc4c(c3)CN(C)CC43CC3)nc2n1-c1ccc(=O)n(C(C)(C)C)n1` [Compound 291] was tested, and the IC50 (Wee-1 kinase) was at most 30 nM and the IC50 (HT29 cells) was at most 1000 nM.
`CN1CCN(c2ccc(Nc3ncc4c(=O)n(C5CC5)n(-c5ccc(=O)n(C(C)(C)C)n5)c4n3)cc2)CC1` [Compound 292] gave an IC50 (Wee-1 kinase) of at most 30 nM and an IC50 (HT29 cells) of at most 1000 nM.
With `Cc1cc(Nc2ncc3c(=O)n(C4CC4)n(-c4ccc(=O)n(C(C)(C)C)n4)c3n2)ccc1N1CCN(C)CC1` [Compound 293] the IC50 (Wee-1 kinase) was at most 30 nM and the IC50 (HT29 cells) was at most 1000 nM.
Compound `Cc1cc(Nc2ncc3c(=O)n(C4CC4)n(-c4ccc(=O)n(C(C)(C)C)n4)c3n2)ccc1C1CCN(C)CC1` [Compound 294] has an IC50 (Wee-1 kinase) of at most 30 nM and an IC50 (HT29 cells) of at most 1000 nM.
In the case of `CN1Cc2cc(Nc3ncc4c(=O)n(C5CC5)n(-c5ccc(=O)n(C(C)(C)C)n5)c4n3)ccc2C2(CC2)C1` [Compound 295], the IC50 (Wee-1 kinase) is reported as at most 30 nM and the IC50 (HT29 cells) is reported as at most 1000 nM.
`C=CCn1c(=O)c2cnc(Nc3ccc(N4CCN(C)CC4)c(C)c3)nc2n1-c1ccc(=O)n(C(C)C)c1` [Compound 296] gave an IC50 (Wee-1 kinase) of at most 30 nM and an IC50 (HT29 cells) of at most 1000 nM.
`C=CCn1c(=O)c2cnc(Nc3ccc(C4CCN(C)CC4)c(C)c3)nc2n1-c1ccc(=O)n(C(C)C)c1` [Compound 297] gave an IC50 (Wee-1 kinase) of at most 30 nM and an IC50 (HT29 cells) of at most 1000 nM.
`C=CCn1c(=O)c2cnc(Nc3ccc4c(c3)CN(C)CC43CC3)nc2n1-c1ccc(=O)n(C(C)C)c1` [Compound 298] showed an IC50 (Wee-1 kinase) of at most 30 nM and an IC50 (HT29 cells) of at most 1000 nM.
Work on `CCn1c(=O)c2cnc(Nc3ccc(N4CCN(C)CC4)cc3)nc2n1-c1ccc(=O)n(C(C)C)c1` [Compound 299] yielded an IC50 (Wee-1 kinase) of at most 30 nM and an IC50 (HT29 cells) of at most 1000 nM.
Work on `CCn1c(=O)c2cnc(Nc3ccc(N4CCN(C)CC4)c(C)c3)nc2n1-c1ccc(=O)n(C(C)C)c1` [Compound 300] yielded an IC50 (Wee-1 kinase) of at most 30 nM and an IC50 (HT29 cells) of at most 1000 nM.
`CCn1c(=O)c2cnc(Nc3ccc(C4CCN(C)CC4)c(C)c3)nc2n1-c1ccc(=O)n(C(C)C)c1` [Compound 301] gave an IC50 (Wee-1 kinase) of at most 30 nM and an IC50 (HT29 cells) of at most 1000 nM.
Compound `CCn1c(=O)c2cnc(Nc3ccc4c(c3)CN(C)CC43CC3)nc2n1-c1ccc(=O)n(C(C)C)c1` [Compound 302] has an IC50 (Wee-1 kinase) of at most 30 nM and an IC50 (HT29 cells) of at most 1000 nM.
`CC(C)n1cc(-n2c3nc(Nc4ccc(N5CCN(C)CC5)cc4)ncc3c(=O)n2C(C)C)ccc1=O` [Compound 303] gave an IC50 (Wee-1 kinase) of at most 30 nM and an IC50 (HT29 cells) of at most 1000 nM.
`Cc1cc(Nc2ncc3c(=O)n(C(C)C)n(-c4ccc(=O)n(C(C)C)c4)c3n2)ccc1N1CCN(C)CC1` [Compound 304] showed an IC50 (Wee-1 kinase) of at most 30 nM and an IC50 (HT29 cells) of at most 1000 nM.
`Cc1cc(Nc2ncc3c(=O)n(C(C)C)n(-c4ccc(=O)n(C(C)C)c4)c3n2)ccc1C1CCN(C)CC1` [Compound 305] was tested, and the IC50 (Wee-1 kinase) was at most 30 nM and the IC50 (HT29 cells) was at most 1000 nM.
Work on `CC(C)n1cc(-n2c3nc(Nc4ccc5c(c4)CN(C)CC54CC4)ncc3c(=O)n2C(C)C)ccc1=O` [Compound 306] yielded an IC50 (Wee-1 kinase) of at most 30 nM and an IC50 (HT29 cells) of at most 1000 nM.
With `CC(C)n1cc(-n2c3nc(Nc4ccc(N5CCN(C)CC5)cc4)ncc3c(=O)n2C2CC2)ccc1=O` [Compound 307] the IC50 (Wee-1 kinase) was at most 30 nM and the IC50 (HT29 cells) was at most 1000 nM.
Work on `Cc1cc(Nc2ncc3c(=O)n(C4CC4)n(-c4ccc(=O)n(C(C)C)c4)c3n2)ccc1N1CCN(C)CC1` [Compound 308] yielded an IC50 (Wee-1 kinase) of at most 30 nM and an IC50 (HT29 cells) of at most 1000 nM.
For `Cc1cc(Nc2ncc3c(=O)n(C4CC4)n(-c4ccc(=O)n(C(C)C)c4)c3n2)ccc1C1CCN(C)CC1` [Compound 309], the IC50 (Wee-1 kinase) was at most 30 nM and the IC50 (HT29 cells) was at most 1000 nM.
`CC(C)n1cc(-n2c3nc(Nc4ccc5c(c4)CN(C)CC54CC4)ncc3c(=O)n2C2CC2)ccc1=O` [Compound 310] gave an IC50 (Wee-1 kinase) of at most 30 nM and an IC50 (HT29 cells) of at most 1000 nM.
`C=CCn1c(=O)c2cnc(Nc3ccc(N4CCN(C)CC4)c(OC)c3)nc2n1-c1cc(F)c(=O)n(C(C)C)c1` [Compound 311] showed an IC50 (Wee-1 kinase) of at most 30 nM and an IC50 (HT29 cells) of at most 1000 nM.
`C=CCn1c(=O)c2cnc(Nc3ccc(N4CCN(C)CC4)c(C)c3)nc2n1-c1cc(F)c(=O)n(C(C)C)c1` [Compound 312] gave an IC50 (Wee-1 kinase) of at most 30 nM and an IC50 (HT29 cells) of at most 1000 nM.
In the case of `C=CCn1c(=O)c2cnc(Nc3ccc(C4CCN(C)CC4)c(C)c3)nc2n1-c1cc(F)c(=O)n(C(C)C)c1` [Compound 313], the IC50 (Wee-1 kinase) is reported as at most 30 nM and the IC50 (HT29 cells) is reported as at most 1000 nM.
`C=CCn1c(=O)c2cnc(Nc3ccc4c(c3)CN(C)CC43CC3)nc2n1-c1cc(F)c(=O)n(C(C)C)c1` [Compound 314] gave an IC50 (Wee-1 kinase) of at most 30 nM and an IC50 (HT29 cells) of at most 1000 nM.
Work on `CCn1c(=O)c2cnc(Nc3ccc(N4CCN(C)CC4)cc3)nc2n1-c1cc(F)c(=O)n(C(C)C)c1` [Compound 315] yielded an IC50 (Wee-1 kinase) of at most 30 nM and an IC50 (HT29 cells) of at most 1000 nM.
